Experimental data: patent US5585277A, “Screening method for identifying ligands for target proteins” (Scriptgen Pharmaceuticals, Inc., priority 1995, dated 1996)

Key:
[1] = tested on: Dihydrofolate Reductase (DHFR); assay: Protection of DHFR from Proteinase K digestion in the presence of a mixture of all 20 common amino acids, ELISA; type: binding; conditions: 10^-5M ligand, 10^-5M of all 20 common amino acids, DHFR 2.1 μg/ml, Proteinase K 80 μg/ml, 54° C., 5 minutes
Method: The following were combined and incubated at 54° C. for 5 minutes: DHFR (2.1 μg/ml), Proteinase K (80μg/ml), 0.1M Tris-HCl [pH 7.5], 10^-5M of all 20 common amino acids and either 0 or 10^-5M ligand.
(§1) Samples were removed and undigested DHFR was quantified by ELISA as follows:
(§2) (a) Protease incubations were diluted 50 fold with Tris-buffered saline (TBS);
(§3) (b) 50 μl diluted samples were transferred to the wells of an ELISA plate and incubated 60 minutes at room temperature;
(§4) (e) plate wells were washed as in (c) above;
(§5) (g) plate wells were washed as in (c); and […]

[2] = tested on: Dihydrofolate Reductase (DHFR); assay: Protection of DHFR from proteolytic digestion by Proteinase K, undigested DHFR quantified by ELISA; type: binding; conditions: same methods as Example 1, separate experiments, 54° C., 5 minutes
Method: as §1, §2, §3, §4, §5

In the case of NC(=O)C1=CN([C@@H]2O[C@H](COP(=O)(O)OP(=O)(O)OC[C@H]3O[C@@H](n4cnc5c(N)ncnc54)[C@H](OP(=O)(O)O)[C@@H]3O)[C@@H](O)[C@H]2O)C=CC1 [NADPH], the “protection of DHFR from digestion relative to the absence of ligands” value [1] is reported as “Protects Dihydrofolate Reductase (DHFR) From Proteolytic Digestion” and the “concentration at which ligand inhibits proteolysis of DHFR” value [2] is reported as ≥ 10^-5.
